The results in this text go back to paper PMC12084297, “Cytoplasmic connexin43-microtubule interactions promote glioblastoma stem-like cell maintenance and tumorigenicity” (Cell Death & Disease, 2025).

Some results are limits rather than exact numbers.

The target of one assay is T1, β-actin (Homo sapiens, UniProt P60709).
T1 construct: fresh lysates of GSCs prepared in non-denaturing buffer; endogenous in cells; host or cells: VTC-037 patient-derived glioblastoma stem-like cells (lysate)
Description: Cellular thermal shift assay (CETSA), actin negative control. It is filed as binding. As to conditions: VTC-037 GSC lysates, 57 °C, β-actin as negative control. Here is the method: (§1) For an initial determination of the melting profile of α- and β- tubulin, fresh lysates of GSCs prepared in non-denaturing buffer were dispensed into 96-well PCR plate in stem cell medium (approximately 10,000 cells/well/50 µl), and then subjected to temperature gradient (37–65 °C) for 20 min. Subsequently, centrifugation was performed at 14,000 rpm to sediment the unstable protein content. Supernatant was collected and SDS-PAGE gel was run, and immunodetection was performed to detect α- and β- tubulin using specific primary antibodies described above. A rabbit antibody against β-actin (Cell Signaling Technology; 4970) was used as negative control. Band intensities were quantified on LI-COR C-DiGit Blot Scanner, and subsequently Tagg(50) and Tagg(75) values were calculated for α- and β- tubulin. In a subsequent run, fresh lysates of GSCs were treated at various doses with 3-fold dilutions (222.2, 74.0, 24.7, 8.2 and 2.7 nM) of peptides JM2 and JM2-scrambled, together with DMSO as control, for 1 h. Samples were then subjected to heat challenge at 57 °C for 20 min, and unstable protein was removed by centrifugation step. Following an immunoblotting step, band intensities of the stable tubulin was quantified, and normalized to DMSO control. EC50 values of engagement for both peptide with α- and β- tubulin were subsequently calculated.

The next assay deals with PDX GBM22 tumor. Description: TUNEL and H&E of GBM22-derived tumor sections. In kind it is in vivo, mouse (athymic nude), human GBM22 cells. Particulars: GBM22 tumors, 300 μM intratumorally every day for 14 days, harvested after 16 days. Here is the method:
(§2) Tumors were harvested, snap-frozen in Tissue-Tek® O.C.T. compound (Sakura), and stored at −80 °C until sectioning. […] sections were cut using a Leica CM1850 UV cryostat, placed onto Superfrost Plus^TM slides (Fisher Scientific) and fixed in −20 °C acetone for 5 minutes before air drying. Slides were stored at −80 °C prior to labeling. Tumors sections were then rehydrated in PBS for 5 min, permeabilized in 0.1% Triton X-100 in PBS for 1 h at room temperature, and washed four times with PBS (2 x quick, 2 × 5 min) prior to incubating with streptavidin conjugated to Alexa Fluor 647 (Thermo Fisher) diluted in high-salt buffer (0.5 M NaCl, 10 mM Hepes) for 30 min at room temperature. Tumor sections were then washed four times with high-salt buffer (2 x quick, 2 × 10 min), and twice with PBS (2 × 5 min) before using One-step TUNEL In Situ Apoptosis kit (Green Elab Fluor® 488; Elabscience), according to manufacturer’s instructions. Tumor sections were then washed in PBS (3 × 5 min), incubated with DAPI (Thermo Fisher) in PBS for 5 min, and washed again with PBS (4 × 5 min) before the slides were mounted using Prolong Gold Antifade (Thermo Fisher). GBM22-derived tumor sections were analyzed using fluorescence confocal microscopy on a Nikon NIE upright confocal microscope, while LN229/GSC-derived tumor sections were observed using LED illumination microscopy on a Revolve microscope. For hematoxylin and eosin (H&E) staining, tumor sections were stained using a Histo-Tek® SL Slide Stainer (Sakura), and observed using phase contrast microscopy on a Revolve microscope. Investigators were blinded for all image acquisition experiments.

Another assay deals with VTC-034 GSCs. Description: Caspase 3/7 activity, VTC-034 GSCs. It is filed as cell-based, human. As to conditions: VTC-034 adherent GSCs, 10, 50 or 100 μM, 48 h, Caspase-Glo 3/7. Here is the method:
Cells were plated in 96-well plates (2000–5000 cells per well) and treated the following day with TMZ (10, 50, or 100 μM), antennapedia, JM2-scrambled, or JM2 (10, 50, or 100 μM). After 4 days, cell viability was monitored following addition of MTS reagent (Promega) according to manufacturer’s instructions. The absorbance at 490 nm was measured using a SpectraMax i3 or iD3 microplate reader (Molecular Devices). For the caspase 3/7 activity assay, cells were plated in 96-well plates (2000 cells per well) and treated with TMZ or peptides as described above. The activity of caspase 3/7 was measured after 48 h using the Caspase-Glo® 3/7 assay (Promega) following the manufacturer’s instructions. Fold change of caspase 3/7 activity was defined as the ratio of caspase 3/7 luminescence in treated cells compared to controls.

A further assay relates to PDX GBM22 cells. Description: Gliosphere formation assay, PDX GBM22 cells. In kind it is cell-based, human. Particulars: 100 μM every other day, 2 weeks. Here is the method: GSCs and PDX GBM22 cells were plated as single cell suspension in low-attachment 96-well plates (GSCs: 100–500 cells per well; GBM22 cells: 500–2000 cells per well), using methods similar to those reported previously. Cells were then treated with peptides every other day. 2 weeks later, gliospheres were observed using phase contrast microscopy on a Revolve microscope (Echo Laboratories). The number of gliospheres was then determined, while the gliosphere size was assessed by diameter measurement. To evaluate stem cell frequency in GSCs, gliosphere formation assay was performed with limiting cell dilutions with cells plated at varying densities in low-attachment 96-well plates. Cells were treated with peptides every other day, and after 2 weeks, gliosphere-positive wells were observed and scored using phase contrast microscopy on a Revolve microscope. The stem cell frequency was analyzed using the online data analysis program ELDA (Extreme Limiting Dilution Analysis).

The test system of a further assay is HES1 mRNA. Kind of assay: HES1 mRNA by RT-qPCR, VTC-001 GSCs. In kind it is cell-based, human. Particulars: 50 μM, 24 h, compared to antennapedia alone. As to the method: RNA was extracted using the PureLink^TM RNA mini extraction kit (Thermo Fisher) and on-column DNA digestion was completed using PureLink^TM DNase according to the manufacturer’s instructions. RNA was reverse transcribed to generate cDNA using the iScript^TM Reverse Transcription SuperMix for RT-qPCR kit (Bio-Rad Laboratories). Real-time PCR was performed using the SYBR select Master Mix for CFX (Thermo Fisher) in hard-shell 96-well PCR plates (Bio-Rad Laboratories) on a CFX Connect Real Time System (Bio-Rad Laboratories). Primer sequences used were: hNOTCH1_Fwd: 5’-CGCACAAGGTGTCTTCCAG-3’; hNOTCH1_Rev: 5’-CGGCGTGTGAGTTGATGA-3’; hHES1_Fwd: 5’-GGCTGGAGAGGCGGCTAA-3’; hHES1_Rev: 5’-[…]-3’; hHEY1_Fwd: 5’-[…]-3’; hHEY1_Rev: 5’-[…]-3’.

The next assay deals with LN229/GSC tumor. Description: TUNEL and H&E of LN229/GSC-derived tumor sections. It is filed as in vivo, mouse (BALB/c nude), human LN229/GSC cells. Particulars: LN229/GSC tumors, 300 µM intratumorally every other day, after 33 days. Here is the method: as §2
The test system of another assay is α-tubulin. Description: Cellular thermal shift assay (CETSA), α-tubulin target engagement. In kind it is binding, human. Particulars: fresh VTC-037 GSC lysates, 3-fold dilutions 222.2-2.7 nM, 1 h, heat challenge 57 °C (Tagg(75)) 20 min, immunoblot, normalized to DMSO control. As to the method:
as §1
On the technique in general: A western blot detects proteins with antibodies after separation by electrophoresis.

What is called EC50 is the concentration needed to bring the measured effect to its halfway point. Regarding VFFKGVKDRVKGRSD [JM2], the “EC50 target engagement, actin (negative control)” value at β-actin is “no EC50 was detected”. Also, in the assay on PDX GBM22 tumor, the “Cell death in tumor sections (H&E)” value was “Increased cell death within JM2-treated tumors was further confirmed” and the “Cell death in tumor sections (TUNEL)” value is on record as “Positive JM2 signal within the tumors correlated with an increase in cell death”. In the assay with VTC-034 GSCs, the “Apoptosis induction (caspase 3/7 activity)” value is recorded as “increased caspase 3/7 activity in these cells in a dose-dependent manner”. Besides, the “GBM22-derived gliosphere size (diameter)” value with PDX GBM22 cells (n = 5) is “significantly decreases GBM22-derived gliosphere size”. Besides, the GBM22-derived gliosphere number result in the assay with PDX GBM22 cells (n = 6) was “significantly decreases GBM22-derived gliosphere size as assessed by diameter measurement (Fig. 8C), and number”. Further, in the assay on HES1 mRNA, the “Hes1 mRNA expression” value was “significantly decreased the expression of Notch downstream targets Hes1 and Hey1 at the transcription level”. For the same sequence, in the assay on LN229/GSC tumor, the “Cell death in tumor sections (H&E)” value is “further confirmed by H&E staining” and the “Cell death in tumor sections (TUNEL)” value is “increased LN229-derived GSC death that positively correlated with the presence of JM2 within the tumors”. Moreover, in the assay with α-tubulin, the EC50 came to 8.4 nM.

Regarding “GSDVFKRKFVDRKVG [JM2-scrambled, reference compound]”, the “EC50 target engagement, actin (negative control)” value at β-actin is reported as “no EC50 was detected”. Besides, the “Cell death in tumor sections (TUNEL)” value in the assay with PDX GBM22 tumor is “no significant correlation was observed”; with LN229/GSC tumor it was “no significant cell death was observed”. Also, the “Apoptosis induction (caspase 3/7 activity)” value in the assay on VTC-034 GSCs was “inefficient in inducing apoptosis”. Further, in the assay on α-tubulin, the concentration for a half-maximal effect (EC50) was > 200 nM.
